Patent US10426850B2, “Collagen mimetic peptides for targeting collagen strands for in vitro and in vivo imaging and therapeutic use” (The Johns Hopkins University, priority 2011, dated 2019)

Key:
[1] = system: collagens in fixed tissue sections (skin, cornea, bone); test: Immunohistochemistry of fixed tissue sections with UV-activated caged CMP; design: species or system mouse; details: UV-activated on tissue
From the text: For immunohistochemical staining, anti-collagen I antibody was purchased from Abcam (ab292, Cambridge, Mass.); bovine serum albumin (BSA), goat serum, and Triton X-100 were purchased from Sigma-Aldrich; DAPI was obtained from Roche Applied Science (Indianapolis, Ind.); Alexa Fluor® 594 F(ab′)2 fragment of goat anti-rabbit IgG and Prolong® Gold antifade reagent were purchased from Life Technologies. The skin and cornea tissues were harvested from a 23 month-old wild-type C57BL/6 mouse. The tissues were fixed with 4% paraformaldehyde in PBS solution (pH 7.4) for 1 hour and cryopreserved in Tissue-Tek O.C.T. medium (Sakura Finetek, Torrance, Calif.). Cryosections of 8 μm thickness were obtained and mounted onto charged glass slides. Paraffin embedded mouse bone sections were a kind gift from Dr. Catherine Foss and Dr. Collin Torok at Johns Hopkins University School of Medicine. The leg containing the tibia bone was harvested from a 12-week-old female athymic nu/nu mouse. The muscle tissues were manually trimmed, and the bone was fixed in 10% neutral-buffered formalin at room temperature overnight. The bone was demineralized in Decal Stat solution (Decal Chemical, Suffern, N.Y.) for 3 hr at room temperature, embedded in paraffin and sectioned to 4 μm at Tissue Microarray Facility of Johns Hopkins University. The formalin-fixed normal and fibrotic rat livers were a kind gift from Jie Yan and Yuzhan Kang at National University of Singapore. The tissues were sectioned to 10 μm thickness on glass slides and stained by Masson trichrome by the Reference Histology Laboratory, Johns Hopkins Medical Institutions.
Immunohistochemistry. Frozen fixed tissue slides were allowed to equilibrate to room temperature and dried under air flow. The tissue sections were permeabilized by cold methanol at −20° C. for 10 min, and incubated in 1×PBS solution. The paraffin embedded bone sections were de-paraffinized by two cycles of 5 min xylene wash, two cycles of 5 min 100% ethanol wash, and two cycles of 5 min 95% ethanol wash followed by soaking in 1×PBS solutions. […]

[2] = system: collagen types I, II and IV; test: SDS-PAGE staining by heat activated fluorescent CMP, collagen types; format: binding, rat (I), bovine (II), mouse (IV); details: 6 μM, 2 μg protein per lane
From the text: Acid soluble rat-tail type I collagen, bovine type II collagen, and mouse type IV collagen were purchased from BD Bioscience (San Jose, Calif.). Complement component C1q from human serum, fibronectin from bovine plasma, and laminin from Engelbreth-Holm-Swarm murine sarcoma basement membrane were purchased from Sigma-Aldrich. ProMMP-1, and p-aminophenylmercuric acetate were acquired from EMD millipore. Human umbilical vein endothelial cells (HUVECs) and EGM-2 cell growth media were obtained from Lonza (Walkersville, Md.). Precast NuPAGE® Novex 4-12% Bis-Tris Gel (1.0 mm, 12 well), Novex® Sharp unstained protein standard, and SDS-PAGE running buffer, sample buffer, and other SDS-PAGE reagents were purchased from Life Technologies.
SDS-PAGE staining and imaging. Proteins were resolved on NuPAGE® Novex 4-12% bis-tris gels under denaturating conditions using an XCell SureLock™ Mini-Cell electrophoresis system (Life Technologies). NuPAGE® MOPS SDS running buffer containing 50 mM MOPS, 50 mM Tris Base, 0.1% SDS, and 1 mM EDTA (pH 7.7) was used. Protein samples were heated to 85° C. in NuPAGE® LDS sample denaturing buffer for 10 min before the gel loading. Unless specified otherwise, 2 μg of protein was used for each lane. The gels were run at 200 V for 50-60 min. Reducing conditions were used only for gels carrying type IV collagen, HUVECs lysate, and C1q, for which NuPAGE® reducing agent was mixed with the protein samples, and 500 μL of NuPAGE® antioxidant was added to the cathode buffer before loading. After electrophoresis, the gels were washed by deionized water briefly three times to remove the remaining SDS. […] The fluorescence intensities of the protein bands were quantified using GE ImageQuant™ TL software. After fluorescence imaging, all gels were further stained with coomassie brilliant blue (CB) G-250 (Bio-Rad) for 2-3 hr followed by washing, and imaging under white light illumination using a Gel Doc EQ system (BioRad).

Substance	staining of fixed mouse skin and cornea sections [1]	staining of demineralized, fixed, paraffin embedded mouse tibia bone sections ([1]; data not shown)	staining of collagen bands [2]	staining of collagen bands ([2]; listed as CFSG9P9O9)
CF-GGG-(GPO)9 [CF(GPO)9]	effectively stained	strong	binds to collagen types I, II and IV	–
CF-GGG-PGOGPGPOPOGOGOPPGOOPGGOOPPG [CF^SG9P9O9, reference compound]	no discernible binding	–	virtually no binding affinity to the collagen bands	revealed no collagen bands
